Data as given in patent US6812213B2, “Steroidal sapogenins and their derivatives for treating alzheimer's disease” (Phytopharm, plc, priority 1998, dated 2004).
Several values for one entry are separate records, joined by “and”; a condition that tells them apart may be missing. Equal values may be shown once.

Tests used:
[1] = tested on: muscarinic receptors on cultured cardiac muscle cells; assay: Muscarinic receptor expression on cultured neonatal cardiac muscle cells (tritiated QNB); assay type: cell-based, Sprague Dawley rats
Procedure: 3. Cultured cardiac muscle cells obtained from neonatal Sprague Dawley rats. The cardiac muscle cells express muscarinic receptors, typically m2. The level of these receptors falls on prolonged culture and the effects of compounds of interest in preventing the fall in receptor numbers was investigated.
Cardiac muscle cells were isolated from the ventricular muscle of neonatal Sprague Dawley rats using standard techniques. Cells were cultured in vitro and muscarinic receptor numbers expressed on cell surfaces membrane fragments after homogenisation of cells harvested at various time points were estimated using specific binding of tritiated QNB. […] The experiments were therefore designed to investigate the effects of the various compounds in inhibiting this decline in receptor numbers.

[2] = tested on: oestrogen receptor; assay: Oestrogenic effects of steroid sapogenin compounds
Source text: In identifying compounds that would have use in the treatment of SDAT and other diseases characterised by reductions in receptor numbers or synaptic transmission, the inventors have given consideration to the need to identify compounds that would have the desired effect but would be devoid of any oestrogenic effects, as these would be unacceptable, particularly in male patients. A number of the compounds claimed to have activity in patent application DE 4303214A1 have marked oestrogenic activity and are therefore unacceptable.
In addition these compounds were tested at other steroid receptors as it was considered that compounds that would be of clinical sue should have no effects at the other steroid receptors.

[3] = tested on: m2 receptors on CHO cells; assay: Expression of m2 receptors on transfected CHO cells (tritiated QNB binding); assay type: cell-based; conditions: DMSO control
Procedure: 1. Chinese hamster ovary (CHO) cells transfected with the a DNA fragment coding for a muscarinic receptor. The cell line used for the majority of the experiments was a cell line expressing the m2 receptor.
The effects of various compounds on the expression of m2 receptors on CHO cells transfected with DNA for the m2 receptor were investigated. Receptor numbers were assayed using tritiated QNB binding and subtracting non-specific binding. Compounds were dissolved in DMSO and DMSO was used as a control. Compounds were tested at a range of final concentrations. Compounds were also tested in the presence and absence of tamoxifen to try to distinguish an oestrogen receptor mediated mechanism.

[4] = tested on: m1 receptor mRNA; assay: m1 receptor mRNA levels in brain by in situ hybridisation; assay type: in vivo, SD rats; conditions: for m1 receptor mRNA, comparison SaG vs Aged: 3 mg sarsasapogenin per rat per day in feed, four months, positive means increased
Procedure: 20 months old pure-line male SD rats were divided randomly into 2 groups. One group received an average of 3 mg of sarsasapogenin per rat per day mixed into the daily feed. The control group received normal food and water. Four months later, their brains were used in hybridisation technique experiments, with 4 to 6 months old rats used as a young control group. Other feeding arrangements for each group were completely identical.
A cDNA chain which respectively corresponds to the maNA of both m1 and m2 was synthesised, m1 corresponds to the 3-18 amino acid sequence of receptor protein, i.e. TGGTGCCAAGACAGTGATGTTGGGACTGACAGCAGGGGGCACTGAGGT, and M2 to the 1-16 amino acid sequence, i.e. ATGAATAACTCAACAAACTCCTCGAACAATGGCTTGGCTATTACCAGT. The cDNA was labelled using a 3′-terminal-label reagent kit with a-^35S-dATP (8.9 TBq/mmol) as the label material. After the reaction had finished, it was purified with a nucleotide column. The specific activity of the batch was estimated (16.67-33.34)×108 MBq/μg. a-^35S-dATP, 3′-terminal-label reagent kit and nucleotide column were obtained from Du Pont Co., USA.
One rat was obtained from each group each time and parallel experiments were performed. The rats were decapitated and their brains removed intact. 15 μm thick coronal slices were prepared in a constantly freezing cryo-microtome (AS-600 cryo-microtome, Anglia Scientific Co, UK). Slices were taken from different areas (identical places for each rat) and were mounted on slides smeared with polylysine, dried in a cool current of air, fixed in a solution of 4% paraformaldehyde (containing 1×phosphate buffer saline (PBS), pH 7.0) for 5 minutes before being washed twice in PBS. They were then placed in 0.25% acetic anhydride solution (containing 0.1 M triethanolamine hydrochloride, Ph 8.0, and 0.9% sodium chloride) for 10 minutes, dehydrated in 70%, 80%, 95%, and 100% ethyl alcohol for 1 minute, degreased in chloroform for 5 minutes, and finally treated in 100% and 95% ethyl alcohol for 1 minute successively.
Slices used as negative controls were taken and dehydrated in ethyl alcohol etc. as detailed above, but treated in advance in 100 mg m1 RNase and 2×SSC solution (salt/sodium citrate solution containing 300 mmol/L sodium chloride and […] sodium citrate) for 2 hours at 37° C. […]
Autoradiographs were prepared in a dark room, the specimen and the hyperfilm beta max being pressed together using the contact method and placed in a cassette with a desiccant, exposed at 4° C. for 2 to 3 weeks. […] Finally, the autoradiographs were analysed using a computerised image analyser (VIDAS imaging analyser, Kontron, Germany).

[5] = tested on: known steroidal receptors; assay: Binding to known steroidal receptors
[6] = tested on: major known classes of membrane bound receptor; assay: Direct binding to major known classes of membrane bound receptor
Source text: Thus it can be postulated that the observed effects are probably not due to for instance an effect at the nicotinic receptor and a consequential increase in the number of muscarinic receptors. This explanation appears to be even less plausible (although it cannot be excluded) if one considers that certain of the compounds have also been shown by the inventors to increase the number of beta adrenergic receptors expressed on peripheral blood lymphocytes. Thus the mechanism would appear to be one which has a more general effect on the regulation of membrane bound receptors.

[7] = tested on: M1 cholinergic receptors; conditions: Chinese Patent No. CN1096031A; cited from earlier work
[8] = tested on: β-adrenergic receptors; conditions: Chinese Patent No. CN1096031A; cited from earlier work
[9] = Molar concentration of compound 10^−5

| Molecule | Concentration of compound causing a significant increase in number of receptors expressed on neonatal cardiac muscle after 10 days in vitro culture [1] | Oestrogenic Activity [2] | Effect on receptor expression—given as % increase compared to control (negative values in brackets) [3, 9] [%] | other results |
| --- | --- | --- | --- | --- |
| Astragaloside | 10^−5 M | Negative | – | – |
| C[C@@H]1CC[C@@]2(OC1)O[C@H]1C[C@H]3[C@@H]4CC=C5C[C@@H](O)CC[C@]5(C)[C@H]4CC[C@]3(C)[C@H]1[C@@H]2C [Diosgenin] | – | Positive | – | – |
| Smilagenin | 10^−6 M | Negative | 57 | Effect on receptor expression—given as % increase compared to control (negative values in brackets) ([3]; Molar concentration of compound 10^−6): 18% |
| C[C@@H]1CC[C@@]2(OC1)O[C@H]1C[C@H]3[C@@H]4C[C@@H](O)[C@@]5(O)C[C@@H](O)CC[C@]5(C)[C@H]4CC[C@]3(C)[C@H]1[C@@H]2C [Anzurogenin D] | 10^−6 M | Negative | 22 | – |
| Sarsasapogenin | 10^−5 M | Negative | 34 | m1 receptor mRNA, comparison SaG vs Aged ([4]; Cortex): 5.77 ± 3.82 (20); m1 receptor mRNA, comparison SaG vs Aged ([4]; Hippocampus): 0.96 ± 4.26 (10); m1 receptor mRNA, comparison SaG vs Aged ([4]; Striatum, p < 0.01, listed as SaG): significant increase and 15.71 ± 3.27 (10); levels of M receptor mRNA ([4]; rats treated with SaG): raised; binding to known steroidal receptors [5]: do not bind; direct binding to membrane bound receptors [6]: not to bind directly; regulation of M1 cholinergic receptors [7]: up-regulate; regulation of β-adrenergic receptors [8]: down-regulate |
| C[C@@H]1CC[C@@]2(OC1)O[C@H]1C[C@H]3[C@@H]4CC=C5C[C@@H](O)C[C@@H](O)[C@]5(C)[C@H]4CC[C@]3(C)[C@H]1[C@@H]2C [Ruscogenin] | – | Positive | – | – |
| Tigogenin | – | Negative | – | – |
